Data from patent US10501441B2, “Substituted imidazolylcarboxamides as pesticides” (BAYER CROPSCIENCE AKTIENGESELLSCHAFT, priority 2016, dated 2019).
Like-named read-outs stand apart in the source and are kept apart here.

What was measured:
[1] = log P by reversed-phase HPLC (C18), EEC directive 79/831 Annex V.A8, neutral range; type: physicochemical; conditions: neutral range, pH 7.8, HPLC C18, 43° C.; for chromatographic logP: reversed-phase HPLC column (C18), read-out: Logp [n]
Protocol: a) The log P values reported in the tables and preparation examples above were determined in accordance with EEC directive 79/831 Annex V.A8 by HPLC (High Performance Liquid Chromatography) using a reversed-phase column (C18). Temperature 43° C. The calibration is effected with unbranched alkan-2-ones (having 3 to 16 carbon atoms), for which the log P values are known. […] The log P values for the acidic range (as log P [a]) and/or for the neutral range (as log P [n]) were stated in the tables and preparation examples above.

Tetranychus urticae = Tetranychus urticae - spray test, OP-resistant (TETRUR); type: in vivo; conditions: for Emax at 500 g/ha: Tetranychus urticae, 144 h, TETRUR, 6 dat, read-out: % efficacy
Protocol: Tetranychus urticae—Spray Test, OP-Resistant
(§1) Solvents: 78.0 parts by weight of acetone • • 1.5 parts by weight of dimethylformamide
(§2) Emulsifier: alkylaryl polyglycol ether
After 6 days, the efficacy in % is determined. 100% means that all the spider mites have been killed; 0% means that no spider mites have been killed.
Tetranychus urticae—Spray Test; OP Resistant (TETRUR)
After the desired period of time (dat), the efficacy in % is determined. 100% means that all the spider mites have been killed; 0% means that none of the spider mites have been killed.

Myzus persicae [2] = test: Myzus persicae - oral test (MYZUPE O); type: in vivo; conditions: for Emax at 0.8 ppm / Emax at 4 ppm / pest or weed control at 20 ppm: Myzus persicae, po, 120 h; for Emax at 0.8 ppm / Emax at 4 ppm: MYZUPE O, 5 dat, read-out: % efficacy; for pest or weed control at 20 ppm / efficacy (aphids killed): after 5 days, 20 ppm; for pest or weed control at 20 ppm: read-out: efficacy (aphids killed)
Protocol: Solvent: 100 parts by weight of acetone
50 μl of the active compound preparation are transferred into microtitre plates and made up to a final volume of 200 μl with 150 μl of IPL41 insect medium (33%+15% sugar). Subsequently, the plates are sealed with parafilm, which a mixed population of green peach aphids (Myzus persicae) within a second microtitre plate is able to puncture and imbibe the solution through it.
After 5 days, the efficacy in % is determined. 100% means that all the aphids have been killed; 0% means that no aphids have been killed.
Myzus persicae—Oral Test (MYZUPE O)
(§3) After the desired period of time (dat), the efficacy in % is determined. 100% means that all the aphids have been killed; 0% means that no aphids have been killed.

Myzus persicae [3] = test: Myzus persicae - spray test (MYZUPE); type: in vivo; conditions: for Emax at 100 g/ha / pest or weed control at 500 g/ha: Myzus persicae; for Emax at 100 g/ha: MYZUPE, 100 g of ai/ha, read-out: % efficacy; for pest or weed control at 500 g/ha: foliar, read-out: efficacy (aphids killed); for pest or weed control at 500 g/ha / efficacy (aphids killed): Chinese cabbage leaf discs, after 5-6 days, 500 g/ha
Protocol: Myzus persicae—Spray Test
Solvents: 78 parts by weight of acetone • • 1.5 parts by weight of dimethylformamide
as §2
After 5-6 days, the efficacy in % is determined. 100% means that all the aphids have been killed; 0% means that no aphids have been killed.
Myzus persicae—Spray Test (MYZUPE)
as §1, §3

CN(C(=O)c1cnc(Cl)n1C)c1cccnc1 [2-Chloro-N, 1-dimethyl-N-(pyridin-3-yl)-1H-imidazole-5-carboxamide]
chromatographic logP [1]: 0.88

O=C(Nc1cccnc1)c1c[nH]cn1 [Ex. No. 13 WO2011/009804, reference compound]
Emax at 500 g/ha (Tetranychus urticae): 0% | Emax at 0.8 ppm (Myzus persicae [2]): 0% | Emax at 4 ppm (Myzus persicae [2]): 0% | Emax at 100 g/ha (Myzus persicae [3]; 144 h, 6 dat): 0%

Cc1nc(C(=O)Nc2cccnc2)c[nH]1 [Ex. No. 14 WO2011/009804, reference compound]
Emax at 500 g/ha (Tetranychus urticae): 0% | Emax at 0.8 ppm (Myzus persicae [2]): 0% | Emax at 4 ppm (Myzus persicae [2]): 0% | Emax at 100 g/ha (Myzus persicae [3]; 5/6 dat): 0%

CN(C(=O)c1cnc(-n2cccc2)n1C)c1cccnc1 [I-1-001]
pest or weed control at 20 ppm (Myzus persicae [2]): 100% | Emax at 0.8 ppm (Myzus persicae [2]): 100% | Emax at 4 ppm (Myzus persicae [2]): 100% | chromatographic logP [1]: 1.27 | Emax at 100 g/ha (Myzus persicae [3]; 144 h, 6 dat): 90% | pest or weed control at 500 g/ha (Myzus persicae [3]): 90%

CN(C(=O)c1cnc(-n2cccn2)n1C)c1cccnc1 [I-1-002]
efficacy (aphids killed) (Myzus persicae [2]): 100% | Logp [n] [1]: 1.01 | efficacy (aphids killed) (Myzus persicae [3]): 90%

CN(C(=O)c1cnc(-n2ccc(C#N)n2)n1C)c1cccnc1 [I-1-003]
efficacy (aphids killed) (Myzus persicae [2]): 100% | Logp [n] [1]: 1.31 | efficacy (aphids killed) (Myzus persicae [3]): 90%

CN(C(=O)c1cnc(-n2ccc(Cl)n2)n1C)c1cccnc1 [I-1-004]
pest or weed control at 20 ppm (Myzus persicae [2]): 100% | Emax at 0.8 ppm (Myzus persicae [2]): 100% | Emax at 4 ppm (Myzus persicae [2]): 100% | chromatographic logP [1]: 1.48 | Emax at 100 g/ha (Myzus persicae [3]; 144 h, 6 dat): 90% | pest or weed control at 500 g/ha (Myzus persicae [3]): 100%

CN(C(=O)c1cnc(-n2cc(Cl)cn2)n1C)c1cccnc1 [I-1-005]
efficacy (aphids killed) (Myzus persicae [2]): 100% | Logp [n] [1]: 1.49 | efficacy (aphids killed) (Myzus persicae [3]): 90%

CN(C(=O)c1cnc(-n2cc(C(F)(F)F)cn2)n1C)c1cccnc1 [I-1-006]
pest or weed control at 20 ppm (Myzus persicae [2]): 100% | Emax at 0.8 ppm (Myzus persicae [2]): 100% | chromatographic logP [1]: 1.82 | Emax at 100 g/ha (Myzus persicae [3]; 144 h, 6 dat): 100% | pest or weed control at 500 g/ha (Myzus persicae [3]): 100%

CN(C(=O)c1cnc(-n2ccc(C(F)(F)F)n2)n1C)c1cccnc1 [I-1-007, N,1-dimethyl-N-(pyridin-3-yl)-2-[3-(trifluoromethyl)-1H-pyrazol-1-yl]-1H-imidazole-5-carboxamide]
pest or weed control at 20 ppm (Myzus persicae [2]): 100% | chromatographic logP [1]: 1.87 | pest or weed control at 500 g/ha (Myzus persicae [3]): 100%

CN(C(=O)c1cnc(-n2cc(C#N)cn2)n1C)c1cccnc1 [I-1-008]
efficacy (aphids killed) (Myzus persicae [2]): 100% | Logp [n] [1]: 1.14 | efficacy (aphids killed) (Myzus persicae [3]): 100%

CN(C(=O)c1cnc(N2CCOCC2)n1C)c1cccnc1 [I-1-009, N,1-Dimethyl-2-(morpholin-4-yl)-N-(pyridin-3-yl)-1H-imidazole-5-carboxamide]
efficacy (spider mites killed) (Tetranychus urticae; 500 g/ha, bean leaf discs, after 6 days): 90% | Emax at 500 g/ha (Tetranychus urticae): 90% | pest or weed control at 20 ppm (Myzus persicae [2]): 100% | Emax at 0.8 ppm (Myzus persicae [2]): 70% | chromatographic logP [1]: 0.85 | Emax at 100 g/ha (Myzus persicae [3]; 144 h, 6 dat): 70% | pest or weed control at 500 g/ha (Myzus persicae [3]): 100%

CN(C(=O)c1cnc(-n2cnc(C(F)(F)F)c2)n1C)c1cccnc1 [I-1-010]
pest or weed control at 20 ppm (Myzus persicae [2]): 100% | Emax at 0.8 ppm (Myzus persicae [2]): 100% | Emax at 4 ppm (Myzus persicae [2]): 100% | chromatographic logP [1]: 1.38 | Emax at 100 g/ha (Myzus persicae [3]; 144 h, 6 dat): 70% | pest or weed control at 500 g/ha (Myzus persicae [3]): 100%

COc1ncn(-c2ncc(C(=O)N(C)c3cccnc3)n2C)n1 [I-1-011]
Emax at 0.8 ppm (Myzus persicae [2]): 90% | Emax at 4 ppm (Myzus persicae [2]): 90% | Emax at 100 g/ha (Myzus persicae [3]; 120 h, 5 dat): 70%

CSc1ncn(-c2ncc(C(=O)N(C)c3cccnc3)n2C)n1 [I-1-011]
efficacy (aphids killed) (Myzus persicae [2]): 100% | Logp [n] [1]: 1.27 | efficacy (aphids killed) (Myzus persicae [3]): 100%

CSc1ccn(-c2ncc(C(=O)N(C)c3cccnc3)n2C)n1 [I-1-012]
efficacy (aphids killed) (Myzus persicae [2]): 100% | Logp [n] [1]: 1.57 | efficacy (aphids killed) (Myzus persicae [3]): 90%

CN(C(=O)c1cnc(N2CCCCC2)n1C)c1cccnc1 [I-1-013]
efficacy (aphids killed) (Myzus persicae [2]): 100% | Logp [n] [1]: 1.53 | efficacy (aphids killed) (Myzus persicae [3]): 100%
